{"source": "BindingDB's records for doi:10.7270/Q2VH5M8G", "about": "(Nmmlsc, 2010)"}
{"molecular_target": "T1, Regulator of G-protein signaling 16 (Homo sapiens, UniProt O15492)", "T1 sequence (O15492 whole entry)": "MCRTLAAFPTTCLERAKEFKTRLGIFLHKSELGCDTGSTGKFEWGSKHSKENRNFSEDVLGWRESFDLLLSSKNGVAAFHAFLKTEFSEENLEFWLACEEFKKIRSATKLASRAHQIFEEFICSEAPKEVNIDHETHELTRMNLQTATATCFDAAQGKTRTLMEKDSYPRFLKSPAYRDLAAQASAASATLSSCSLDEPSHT", "assay": "small molecules altering RGS16 interaction with Galphao – biochemical, multiplexed bead flow cytometry, SAR compounds, SAR follow-up (AID 2298)", "settings": "not given", "units": {"EC50": "nM"}}
{"smiles": "CN1CCN(C2=C(Cl)C(=O)C(c3cnc(N4CCCCC4)s3)=C(Cl)C2=O)CC1", "EC50": 27}
{"smiles": "CCN=c1scc(C)n1N=Cc1ccc(O)c(O)c1O", "EC50": 1050}
{"smiles": "CCN(CC)S(=O)(=O)c1cccc(C(=O)NN=Cc2ccc(O)c(O)c2O)c1", "EC50": 590}
{"smiles": "Cc1[nH]n(-c2ccccc2)c(=S)c1C=NCCCN=Cc1c(C)[nH]n(-c2ccccc2)c1=S", "EC50": 405}
{"smiles": "Cc1cccc(N2CCN(C(=O)COc3nsc4nc(C)cc(C)c34)CC2C)c1", "note": "(configuration not stated)", "EC50": 1430}
{"smiles": "Cc1cccc(N2CCN(C(=O)Cn3ccc4nc(C)cc(C)c4c3=O)CC2C)c1", "note": "(configuration not stated) [2,4-dimethyl-6-[2-[3-methyl-4-(3-methylphenyl)piperazin-1-yl]-2-oxidanylidene-ethyl]-1,6-naphthyridin-5-one]", "EC50": "> 30000"}
{"smiles": "Cc1cc(C)c2c(=O)n(CC(=O)N3CCN(c4ccccc4)CC3)ccc2n1", "note": "[2,4-dimethyl-6-[2-oxidanylidene-2-(4-phenylpiperazin-1-yl)ethyl]-1,6-naphthyridin-5-one]", "EC50": 18}
{"smiles": "Cc1cc(C)c2c(n1)CCN(CC(=O)N1CCN(c3ccccc3)CC1)C2=O", "note": "[2,4-dimethyl-6-[2-oxidanylidene-2-(4-phenylpiperazin-1-yl)ethyl]-7,8-dihydro-1,6-naphthyridin-5-one]", "EC50": "> 30000"}
{"smiles": "O=c1c2ccccc2sn1-c1ccc(S(=O)(=O)N2CCCC2)cc1", "note": "[2-(4-pyrrolidin-1-ylsulfonylphenyl)-1,2-benzothiazol-3-one]", "EC50": 27}
{"smiles": "Cc1cccc(N2CCN(C(=O)Cn3sc4nc(C)cc(C)c4c3=O)CC2C)c1", "note": "(configuration not stated) [2-[2-keto-2-[3-methyl-4-(m-tolyl)piperazino]ethyl]-4,6-dimethyl-isothiazolo[5,4-b]pyridin-3-one]", "EC50": 110}
{"smiles": "Cc1cccc(N2CCN(C(=O)COc3noc4nc(C)cc(C)c34)CC2C)c1", "note": "(configuration not stated) [2-[(4,6-dimethyl-[1,2]oxazolo[5,4-b]pyridin-3-yl)oxy]-1-[3-methyl-4-(3-methylphenyl)piperazin-1-yl]ethanone]", "EC50": "> 30000"}
{"smiles": "O=c1c2ccccc2sn1-c1ccccc1", "note": "[2-phenyl-1,2-benzothiazol-3-one]", "EC50": "> 30000"}
{"smiles": "CCN(CC)S(=O)(=O)c1cccc(-c2n[nH]c(=S)n2N=Cc2ccc(C(=O)OC)cc2)c1", "note": "[4-[(E)-[3-[3-(diethylsulfamoyl)phenyl]-5-thioxo-1H-1,2,4-triazol-4-yl]iminomethyl]benzoic acid methyl ester]", "EC50": 940}
{"smiles": "NS(=O)(=O)c1ccc(N=NCc2ccc(O)c(O)c2O)c([N+](=O)[O-])c1", "note": "[4-[[(E)-(2,3-dihydroxy-4-oxo-1-cyclohexa-2,5-dienylidene)methyl]hydrazo]-3-nitrobenzenesulfonamide]", "EC50": 29}
{"smiles": "CN=c1scc(C)n1N=Cc1ccc(O)c(O)c1O", "note": "[(4E)-2,3-dihydroxy-4-[[(4-methyl-2-methylimino-1,3-thiazol-3-yl)amino]methylidene]cyclohexa-2,5-dien-1-one]", "EC50": 511}
{"smiles": "Cc1[nH]n(-c2ccccc2)c(=S)c1/C=N/c1cccc([N+](=O)[O-])c1", "note": "[(4E)-5-methyl-4-[(3-nitroanilino)methylene]-2-phenyl-2-pyrazoline-3-thione]", "EC50": 46}
{"smiles": "Cc1cccc(N2CCN(C(=O)CN3CCc4nc(C)cc(C)c4C3=O)CC2C)c1", "note": "(configuration not stated) [KUC103675N]", "EC50": "> 30000"}
{"smiles": "CC(=O)OCCCNc1cc(Sc2nc3ccccc3s2)c2nonc2c1[N+](=O)[O-]", "note": "[MLS000521052]", "EC50": 272}
{"smiles": "Cc1cc(Cl)ccc1/N=c1/ssnc1Cl", "note": "[MLS000539990]", "EC50": 53}
{"smiles": "O=C1C(Cl)=C(N2CCCCC2)C(=O)C(Cl)=C1c1cnc(N2CCCCC2)s1", "note": "[MLS000550549]", "EC50": 121}
{"smiles": "CCC(=O)NC(c1ccc(C)cc1)c1cc([N+](=O)[O-])c2cccnc2c1O", "note": "(configuration not stated) [MLS000553854]", "EC50": 5220}
{"smiles": "COc1ccc(C2=CC(=O)C=CC2=O)cc1", "note": "[MLS001029846]", "EC50": 151}
{"smiles": "O=C(COc1ccccc1C(=O)NN=Cc1ccc(O)c(O)c1)NN=Cc1ccc(O)c(O)c1", "note": "[N''-[(Z)-(3-hydroxy-4-oxo-1-cyclohexa-2,5-dienylidene)methyl]-2-[2-[[(Z)-(3-hydroxy-4-oxo-1-cyclohexa-2,5-dienylidene)methyl]hydrazo]-2-oxoethoxy]benzohydrazide]", "EC50": 116}
{"smiles": "CC1(C)OC(=O)C(=Cc2ccc(-c3ccc(S(N)(=O)=O)cc3)o2)C(=O)O1", "note": "[SMR000273939]", "EC50": 3510}
{"smiles": "O=C(Cc1csc(N2CCOCC2)n1)NN=Cc1ccc(O)c(O)c1O", "note": "[SMR000369439]", "EC50": 822}
{"smiles": "Nc1c(C(=O)NCC2CCCO2)sc2nc3c(c(-c4ccco4)c12)CC/C3=C/c1ccco1", "note": "(configuration not stated) [UNM-0000305796]", "EC50": "> 30000"}
{"molecular_target": "T1, Regulator of G-protein signaling 16", "assay": "small molecules altering RGS16 interaction with Galphao – biochemical, multiplexed bead flow cytometry, SAR compounds, SAR follow-up (AID 2298)", "settings": "inactive by the depositor's call", "units": {"EC50": "nM"}}
{"smiles": "CCOc1ccccc1-c1c2cc(O)c(=O)cc-2oc2cc(O)c(O)cc12", "note": "[MLS000578271]", "EC50": 3680}
